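Protocol summary: plate cells (96-well), add compound at 5 concentrations, incubate 48 h, interpolate endpoints linearly. TGI: total growth inhibition.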
Assays:
Assay in all cases: NCI tumour cell line growth inhibition, 48 h
SK-MEL-5 melanoma = system: SK-MEL-5 melanoma
HCT-15 colon = system: HCT-15 colon
SF-268 CNS = system: SF-268 CNS
UACC-62 melanoma = system: UACC-62 melanoma
LOX IMVI melanoma = system: LOX IMVI melanoma
M14 melanoma = system: M14 melanoma
HOP-62 NSCLC = system: HOP-62 NSCLC
SF-295 CNS = system: SF-295 CNS
OVCAR-3 ovarian = system: OVCAR-3 ovarian
ACHN renal = system: ACHN renal
A498 renal = system: A498 renal
DU-145 prostate = system: DU-145 prostate
TK-10 renal = system: TK-10 renal
SNB-19 CNS = system: SNB-19 CNS
SF-539 CNS = system: SF-539 CNS
OVCAR-8 ovarian = system: OVCAR-8 ovarian
OVCAR-5 ovarian = system: OVCAR-5 ovarian
HT29 colon = system: HT29 colon
786-0 renal = system: 786-0 renal
SR leukemia = system: SR leukemia
K-562 leukemia = system: K-562 leukemia
T-47D breast = system: T-47D breast
HS 578T breast = system: HS 578T breast
HCC-2998 colon = system: HCC-2998 colon
HOP-92 NSCLC = system: HOP-92 NSCLC
RPMI-8226 leukemia = system: RPMI-8226 leukemia
MOLT-4 leukemia = system: MOLT-4 leukemia
A549 NSCLC = system: A549 NSCLC
RXF 393 renal = system: RXF 393 renal
NCI-H23 lung = system: NCI-H23 lung
PC-3 prostate = system: PC-3 prostate
UACC-257 melanoma = system: UACC-257 melanoma
KM12 colon = system: KM12 colon
MCF7 breast = system: MCF7 breast
HL-60(TB) leukemia = system: HL-60(TB) leukemia
SK-MEL-2 melanoma = system: SK-MEL-2 melanoma
COLO 205 colon = system: COLO 205 colon
NCI/ADR-RES ovarian = system: NCI/ADR-RES ovarian
UO-31 renal = system: UO-31 renal
MDA-N = system: MDA-N
SN12C renal = system: SN12C renal
EKVX NSCLC = system: EKVX NSCLC
SNB-75 CNS = system: SNB-75 CNS
MDA-MB-435 = system: MDA-MB-435
BT-549 breast = system: BT-549 breast
HCT-116 colon = system: HCT-116 colon
CAKI-1 renal = system: CAKI-1 renal
IGROV1 ovarian = system: IGROV1 ovarian
OVCAR-4 ovarian = system: OVCAR-4 ovarian
NCI-H226 lung = system: NCI-H226 lung
SW-620 colon = system: SW-620 colon
MALME-3M melanoma = system: MALME-3M melanoma
NCI-H522 lung = system: NCI-H522 lung
CCRF-CEM leukemia = system: CCRF-CEM leukemia
NCI-H460 lung = system: NCI-H460 lung
SK-MEL-28 melanoma = system: SK-MEL-28 melanoma
U251 CNS = system: U251 CNS
SK-OV-3 ovarian = system: SK-OV-3 ovarian
MDA-MB-231 breast = system: MDA-MB-231 breast
DLD-1 colon = system: DLD-1 colon
SNB-78 CNS = system: SNB-78 CNS
LXFL 529 NSCLC = system: LXFL 529 NSCLC
KM20L2 colon = system: KM20L2 colon

c1cc(-c2ccsc2-c2ccsc2)cs1
TGI (SK-MEL-5 melanoma): > 100 µM | TGI (HCT-15 colon): > 100 µM | TGI (SF-268 CNS): > 100 µM | TGI (UACC-62 melanoma): > 100 µM | TGI (LOX IMVI melanoma): > 100 µM | TGI (M14 melanoma): > 100 µM | TGI (HOP-62 NSCLC): > 100 µM | TGI (SF-295 CNS): > 100 µM | TGI (OVCAR-3 ovarian): > 100 µM | TGI (ACHN renal): > 100 µM | TGI (A498 renal): > 100 µM | TGI (DU-145 prostate): > 100 µM | TGI (TK-10 renal): > 100 µM | TGI (SNB-19 CNS): > 100 µM | TGI (SF-539 CNS): > 100 µM | TGI (OVCAR-8 ovarian): > 100 µM | TGI (OVCAR-5 ovarian): > 100 µM | TGI (HT29 colon): > 100 µM | TGI (786-0 renal): > 100 µM | TGI (SR leukemia): > 74.9 µM | TGI (K-562 leukemia): > 100 µM | TGI (T-47D breast): > 100 µM | TGI (HS 578T breast): > 100 µM | TGI (HCC-2998 colon): > 100 µM | TGI (HOP-92 NSCLC): > 100 µM | TGI (RPMI-8226 leukemia): > 100 µM | TGI (MOLT-4 leukemia): > 89 µM | TGI (A549 NSCLC): > 100 µM | TGI (RXF 393 renal): > 85.5 µM | TGI (NCI-H23 lung): > 100 µM | TGI (PC-3 prostate): > 100 µM | TGI (UACC-257 melanoma): > 100 µM | TGI (KM12 colon): 99.7 µM | TGI (MCF7 breast): > 100 µM | TGI (HL-60(TB) leukemia): > 100 µM | TGI (SK-MEL-2 melanoma): > 59.1 µM | TGI (COLO 205 colon): > 100 µM | TGI (NCI/ADR-RES ovarian): > 100 µM | TGI (UO-31 renal): > 100 µM | TGI (MDA-N): > 72.5 µM | TGI (SN12C renal): > 100 µM | TGI (EKVX NSCLC): > 100 µM | TGI (SNB-75 CNS): > 100 µM | TGI (MDA-MB-435): > 82.9 µM | TGI (BT-549 breast): > 100 µM | TGI (HCT-116 colon): > 100 µM | TGI (CAKI-1 renal): > 100 µM | TGI (IGROV1 ovarian): > 100 µM | TGI (OVCAR-4 ovarian): > 100 µM | TGI (NCI-H226 lung): > 71.7 µM | TGI (SW-620 colon): > 100 µM | TGI (MALME-3M melanoma): > 100 µM | TGI (NCI-H522 lung): > 100 µM | TGI (CCRF-CEM leukemia): > 100 µM | TGI (NCI-H460 lung): > 100 µM | TGI (SK-MEL-28 melanoma): > 100 µM | TGI (U251 CNS): > 100 µM | TGI (SK-OV-3 ovarian): > 100 µM | TGI (MDA-MB-231 breast): > 100 µM

COC(=O)c1cc2c3c(c1)Oc1cc(C(=O)OC)cc4c1C3c1c(cc(C(=O)OC)cc1O4)O2
TGI (SK-MEL-5 melanoma): 14.3 µM | TGI (HCT-15 colon): > 100 µM | TGI (SF-268 CNS): 30 µM | TGI (UACC-62 melanoma): > 75.5 µM | TGI (LOX IMVI melanoma): > 46.1 µM | TGI (M14 melanoma): > 95.7 µM | TGI (HOP-62 NSCLC): 23.5 µM | TGI (SF-295 CNS): 26.4 µM | TGI (OVCAR-3 ovarian): 33 µM | TGI (ACHN renal): 26.2 µM | TGI (A498 renal): > 94.6 µM | TGI (DU-145 prostate): > 41.3 µM | TGI (TK-10 renal): > 56.9 µM | TGI (SNB-19 CNS): > 62.9 µM | TGI (SF-539 CNS): 33 µM | TGI (OVCAR-8 ovarian): 17.1 µM | TGI (OVCAR-5 ovarian): > 66.1 µM | TGI (HT29 colon): 38.3 µM | TGI (786-0 renal): 23 µM | TGI (SR leukemia): > 100 µM | TGI (K-562 leukemia): > 100 µM | TGI (T-47D breast): > 100 µM | TGI (HS 578T breast): 41.1 µM | TGI (HCC-2998 colon): > 100 µM | TGI (HOP-92 NSCLC): > 31.6 µM | TGI (RPMI-8226 leukemia): > 100 µM | TGI (MOLT-4 leukemia): > 100 µM | TGI (A549 NSCLC): > 48.3 µM | TGI (RXF 393 renal): 16.5 µM | TGI (NCI-H23 lung): > 72 µM | TGI (PC-3 prostate): > 53.6 µM | TGI (UACC-257 melanoma): > 100 µM | TGI (KM12 colon): > 49.7 µM | TGI (MCF7 breast): > 56.3 µM | TGI (HL-60(TB) leukemia): > 29.3 µM | TGI (SK-MEL-2 melanoma): > 100 µM | TGI (COLO 205 colon): > 91.5 µM | TGI (NCI/ADR-RES ovarian): 13 µM | TGI (UO-31 renal): > 100 µM | TGI (MDA-N): > 100 µM | TGI (SN12C renal): > 100 µM | TGI (EKVX NSCLC): 46.4 µM | TGI (SNB-75 CNS): 20 µM | TGI (MDA-MB-435): > 100 µM | TGI (BT-549 breast): > 100 µM | TGI (HCT-116 colon): > 100 µM | TGI (CAKI-1 renal): 27.8 µM | TGI (IGROV1 ovarian): 26.5 µM | TGI (OVCAR-4 ovarian): > 100 µM | TGI (NCI-H226 lung): 13.6 µM | TGI (SW-620 colon): > 100 µM | TGI (MALME-3M melanoma): 37.2 µM | TGI (NCI-H522 lung): 15.5 µM | TGI (CCRF-CEM leukemia): 96.9 µM | TGI (NCI-H460 lung): > 100 µM | TGI (SK-MEL-28 melanoma): > 100 µM | TGI (U251 CNS): 41.8 µM | TGI (SK-OV-3 ovarian): 42.4 µM | TGI (MDA-MB-231 breast): > 100 µM

COc1cccc([C@@]2(O)c3c(ccc(O)c3OC)[C@H]2OC)c1OC
TGI (SK-MEL-5 melanoma): > 100 µM | TGI (SF-268 CNS): > 100 µM | TGI (M14 melanoma): > 100 µM | TGI (HOP-62 NSCLC): > 100 µM | TGI (SF-295 CNS): > 100 µM | TGI (OVCAR-3 ovarian): > 100 µM | TGI (ACHN renal): > 100 µM | TGI (A498 renal): > 100 µM | TGI (TK-10 renal): 93.6 µM | TGI (SNB-19 CNS): > 100 µM | TGI (OVCAR-8 ovarian): > 100 µM | TGI (OVCAR-5 ovarian): > 100 µM | TGI (HT29 colon): > 100 µM | TGI (786-0 renal): 30.3 µM | TGI (SR leukemia): > 100 µM | TGI (K-562 leukemia): > 100 µM | TGI (DLD-1 colon): > 100 µM | TGI (SNB-78 CNS): > 100 µM | TGI (LXFL 529 NSCLC): 62.1 µM | TGI (HCC-2998 colon): > 100 µM | TGI (HOP-92 NSCLC): > 100 µM | TGI (RPMI-8226 leukemia): > 100 µM | TGI (MOLT-4 leukemia): > 100 µM | TGI (A549 NSCLC): > 100 µM | TGI (NCI-H23 lung): > 100 µM | TGI (UACC-257 melanoma): > 100 µM | TGI (KM12 colon): > 100 µM | TGI (HL-60(TB) leukemia): 57.3 µM | TGI (SK-MEL-2 melanoma): > 100 µM | TGI (UO-31 renal): > 100 µM | TGI (SN12C renal): > 100 µM | TGI (EKVX NSCLC): > 100 µM | TGI (KM20L2 colon): > 100 µM | TGI (SNB-75 CNS): > 100 µM | TGI (CAKI-1 renal): 78.4 µM | TGI (IGROV1 ovarian): > 100 µM | TGI (OVCAR-4 ovarian): > 100 µM | TGI (NCI-H226 lung): > 100 µM | TGI (SW-620 colon): > 100 µM | TGI (MALME-3M melanoma): > 100 µM | TGI (NCI-H522 lung): 52.2 µM | TGI (CCRF-CEM leukemia): > 100 µM | TGI (NCI-H460 lung): > 100 µM | TGI (SK-MEL-28 melanoma): > 100 µM | TGI (U251 CNS): > 100 µM | TGI (SK-OV-3 ovarian): > 100 µM
